The subject of this test is primary human lung fibroblasts and primary rodent HSCs. As to the kind of experiment: High content imaging assay (α-SMA staining, cell morphology) of fibroblast to myofibroblast transdifferentiation, confirmed by Western blot and RT-PCR. The conditions noted are these: Homo sapiens, Fibroblast; imaging and western based activity. An outline of the steps: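 Primary human lung fibroblasts and primary rodent HSCs were serum-starved and then TGF-β-treated to drive transdifferentiation in 384-well format, with SB-431542 as positive control. Readouts were α-SMA immunofluorescence and cell morphology by high-content imaging, confirmed by Western blot and RT-PCR in 4-day, 4-point dose-response assays; EC50 values are graded.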
In general terms: A western blot detects proteins with antibodies after separation by electrophoresis.
With `CC(O)C(C)n1cnn(-c2ccc(N3CCN(c4ccc(OC[C@@H]5CO[C@@](Cn6nccn6)(c6ccccc6)O5)cc4)CC3)cc2)c1=O` (some centres unmarked) [Compound 16], the EC50 lay within 5000 to 30000 nM.

In turn, `CC(=O)C(C)n1cnn(-c2ccc(N3CCN(c4ccc(OC[C@@H]5CO[C@@](Cn6nccn6)(c6ccc(Cl)cc6Cl)O5)cc4)CC3)cc2)c1=O` (some centres unmarked) [Compound 10] returned an EC50 of 500 to 5000 nM.

Consider `CCC(C)n1ncn(-c2ccc(N3CCN(c4ccc(OC[C@@H]5CO[C@@](Cn6nccn6)(c6ccc(CN)cc6)O5)cc4)CC3)cc2)c1=O` (some centres unmarked) [Compound 37], for which the EC50 lay within 500 to 5000 nM.

In turn, `CCC(C)n1cnn(-c2ccc(N3CCN(c4ccc(OC[C@@H]5CO[C@@](Cc6ccccc6)(c6ccccc6)O5)cc4)CC3)cc2)c1=O` (some centres unmarked) [Compound 150] yielded an EC50 of over 30000 nM.

Regarding `CCCC(C)n1ncn(-c2ccc(N3CCN(c4ccc(OC[C@@H]5CO[C@@](Cn6nccn6)(c6ccc(C#N)cc6C)O5)cc4)CC3)cc2)c1=O` (some centres unmarked) [Compound 23], the EC50 was in the range of 500 to 5000 nM.

Compound `CC[C@@H](C)n1ncn(-c2ccc(N3CCN(c4ccc(OC[C@H]5CO[C@@](Cn6nccn6)(c6ccccc6)O5)cc4)CC3)cc2)c1=O` [Compound 184] yielded a concentration for a half-maximal effect (EC50) of under 500 nM.

In turn, `CCC(C)n1ncn(-c2ccc(N3CCN(c4ccc(OC[C@@H]5CO[C@](Cc6ccnnc6)(c6ccccc6C)O5)cc4)CC3)cc2)c1=O` (some centres unmarked) [Compound 116] displayed an EC50 of under 500 nM.

Compound `CCC(C)n1ncn(-c2ccc(N3CCN(c4ccc(OC[C@@H]5CO[C@](Cc6ccnnc6)(c6cc(Cl)cc(Cl)c6)O5)cc4)CC3)cc2)c1=O` (some centres unmarked) [Compound 122] came in with an EC50 of under 500 nM.

`CC[C@@H](C)n1ncn(-c2ccc(N3CCN(c4ccc(OC[C@@H]5CO[C@@](Cn6nccn6)(c6ccccc6)O5)cc4)CC3)cc2)c1=O` [Compound 179, 4-(4-(4-(4-(((2S,4R)-2-((2H-1,2,3-triazol-2-yl)methyl)-2-phenyl-1,3-dioxolan-4-yl)methoxy)phenyl)piperazin-1-yl)phenyl)-(R)-1-sec-butyl-1H-1,2,4-triazol-5(4H)-one] displayed an EC50 of under 500 nM.

On to `CCC(C)n1ncn(-c2ccc(N3CCN(c4ccc(OC[C@@H]5CO[C@@](Cn6nccn6)(c6ccc(Cl)cc6Cl)O5)c(C#N)c4)CC3)cc2)c1=O` (some centres unmarked) [Compound 57], for which the EC50 was under 500 nM.

`CCC(C)n1ncn(-c2ccc(N3CCN(c4ccc(OC[C@@H]5CO[C@@](Cn6nccn6)(c6ccccc6)O5)c(C(F)(F)F)c4)CC3)cc2)c1=O` (some centres unmarked) [Compound 59] came in with an EC50 of 5000 to 30000 nM.

For orientation: EC50 means the concentration that produces a half-maximal response.
